{
  "source": "paper PMC6124754",
  "about": "“Characterization of new, efficient Mycobacterium tuberculosis topoisomerase-I inhibitors and their interaction with human ABC multidrug transporters” (PLoS ONE, 2018)",
  "key": {"MtTopo-I": {"biological_target": "T1, MtTopo-I (Mycobacterium tuberculosis, UniProt P9WG49)", "T1 construct": "made in house; host or cells: E. coli", "T1 sequence (P9WG49 whole entry)": "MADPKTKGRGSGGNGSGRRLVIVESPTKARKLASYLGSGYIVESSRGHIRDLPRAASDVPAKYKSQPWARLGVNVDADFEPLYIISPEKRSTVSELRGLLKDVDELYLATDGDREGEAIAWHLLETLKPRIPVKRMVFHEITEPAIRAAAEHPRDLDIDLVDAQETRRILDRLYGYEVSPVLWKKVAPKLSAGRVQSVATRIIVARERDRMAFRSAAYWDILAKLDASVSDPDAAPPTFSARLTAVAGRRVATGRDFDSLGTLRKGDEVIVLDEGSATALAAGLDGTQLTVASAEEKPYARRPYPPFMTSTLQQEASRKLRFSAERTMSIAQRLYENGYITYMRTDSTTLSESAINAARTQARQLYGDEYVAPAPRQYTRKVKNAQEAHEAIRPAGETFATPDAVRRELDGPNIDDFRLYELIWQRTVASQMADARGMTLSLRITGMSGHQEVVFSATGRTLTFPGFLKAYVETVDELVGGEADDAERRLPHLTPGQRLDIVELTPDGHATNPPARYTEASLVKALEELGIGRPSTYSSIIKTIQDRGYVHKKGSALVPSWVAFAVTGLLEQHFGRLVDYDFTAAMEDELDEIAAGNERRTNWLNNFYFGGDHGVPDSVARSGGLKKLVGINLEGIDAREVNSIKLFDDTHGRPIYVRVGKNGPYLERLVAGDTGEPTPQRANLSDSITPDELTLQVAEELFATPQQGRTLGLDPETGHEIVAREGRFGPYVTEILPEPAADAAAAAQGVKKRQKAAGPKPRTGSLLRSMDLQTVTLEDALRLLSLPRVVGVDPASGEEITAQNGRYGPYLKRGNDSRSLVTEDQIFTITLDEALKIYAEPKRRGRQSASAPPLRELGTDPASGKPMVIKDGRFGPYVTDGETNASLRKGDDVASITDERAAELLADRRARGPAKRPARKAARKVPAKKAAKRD", "experiment": "DNA relaxation assay of supercoiled pUC18 DNA by MtTopo-I", "assay_type": "biochemical", "conditions": "minimum concentration providing complete inhibition"}, "H37Rv Mtb strain": {"tested_on": "H37Rv Mtb strain", "experiment": "H37Rv growth inhibition, resazurin reduction microplate assay (REMA)", "assay_type": "cell-based, Mycobacterium tuberculosis"}, "human ABCB1 [1]": {"biological_target": "T2, human ABCB1 (Homo sapiens, UniProt P08183)", "T2 sequence (P08183 whole entry)": "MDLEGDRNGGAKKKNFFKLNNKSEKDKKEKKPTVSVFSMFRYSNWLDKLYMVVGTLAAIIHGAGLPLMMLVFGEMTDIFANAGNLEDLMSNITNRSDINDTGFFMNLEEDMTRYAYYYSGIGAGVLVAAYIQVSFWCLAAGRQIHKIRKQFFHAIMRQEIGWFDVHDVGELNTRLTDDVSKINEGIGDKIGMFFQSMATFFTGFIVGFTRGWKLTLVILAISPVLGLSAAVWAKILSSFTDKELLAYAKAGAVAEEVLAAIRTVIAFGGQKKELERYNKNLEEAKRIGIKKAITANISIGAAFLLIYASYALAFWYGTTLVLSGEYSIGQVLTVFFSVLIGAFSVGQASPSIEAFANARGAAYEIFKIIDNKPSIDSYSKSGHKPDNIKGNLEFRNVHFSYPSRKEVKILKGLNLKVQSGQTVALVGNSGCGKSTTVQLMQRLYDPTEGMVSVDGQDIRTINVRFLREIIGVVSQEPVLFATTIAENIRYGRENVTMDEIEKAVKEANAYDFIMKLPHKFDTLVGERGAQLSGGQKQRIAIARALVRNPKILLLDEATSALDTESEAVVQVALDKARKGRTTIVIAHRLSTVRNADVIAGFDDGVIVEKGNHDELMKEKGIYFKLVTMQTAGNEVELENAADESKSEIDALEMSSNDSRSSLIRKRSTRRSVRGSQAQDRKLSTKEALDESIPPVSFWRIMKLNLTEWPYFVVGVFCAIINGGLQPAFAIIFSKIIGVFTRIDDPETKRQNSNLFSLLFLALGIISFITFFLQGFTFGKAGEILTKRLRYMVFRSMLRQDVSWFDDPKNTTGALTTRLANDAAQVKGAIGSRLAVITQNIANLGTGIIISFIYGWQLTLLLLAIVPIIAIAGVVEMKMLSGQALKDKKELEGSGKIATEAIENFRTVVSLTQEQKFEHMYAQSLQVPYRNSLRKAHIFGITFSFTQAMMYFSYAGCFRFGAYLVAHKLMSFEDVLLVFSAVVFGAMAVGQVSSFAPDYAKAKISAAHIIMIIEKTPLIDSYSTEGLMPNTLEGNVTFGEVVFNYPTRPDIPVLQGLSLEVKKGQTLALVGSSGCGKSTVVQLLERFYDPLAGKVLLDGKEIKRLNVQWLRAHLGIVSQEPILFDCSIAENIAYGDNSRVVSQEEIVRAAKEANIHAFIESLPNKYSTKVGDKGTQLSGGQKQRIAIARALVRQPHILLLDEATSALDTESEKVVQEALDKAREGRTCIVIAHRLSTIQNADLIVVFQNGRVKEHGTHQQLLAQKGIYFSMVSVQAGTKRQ", "experiment": "Cellular transport assay, Calcein-AM uptake in ABCB1-overexpressing PLB cells", "assay_type": "cell-based", "conditions": "S6 summary table", "protocol": "(§1) For cellular transport assays, mammalian PLB (lymphoblastoid) cell lines, overexpressing ABCB1 or ABCG2 were used. The parental PLB cell line was purchased from ATCC, and ABCB1 or ABCG2 overexpressing cell lines were established by using lentiviral vectors for human ABC transporters as described earlier in [29]. The transport assays were carried out in 96-well plates. 1x10^5 cells were incubated in the presence of 0.1 μM Calcein-AM or 1 μM DCV (Dye Cycler Violet) for the ABCB1 and for the ABCG2 assays, respectively. The assay was performed in HPMI medium (NaCl 120 mM, KCl 5 mM, MgCl2 0.4 mM, CaCl2 0.04 mM, HEPES 10 mM, NaHCO3 10 mM, glucose 10 mM, Na2HPO4 5 mM; pH 7.4). Fluorescence of the cells was detected using a Victor X3 plate reader (for Calcein, exc. at 485 nm, em. at 535 nm) or the Enspire 2300 (Perkin Elmer) plate reader (for DCV, exc. at 360 nm, em. at 440 nm). Kinetics of fluorescence intensity changes were analyzed to determine relative inhibition, compared to that of a reference agent, providing full inhibition of the ABC transporter. Two of the Vichem compounds examined (VCC979812 and VCC38977) were not compatible with the DCV uptake assay because of their intrinsic fluorescence, therefore for these two compounds ABCG2 transport inhibition was characterized by following mitoxantrone uptake. Mitoxantrone uptake was measured by flow cytometry (BD FACSCanto at 633 nm) by 20 minutes incubation in the presence of 7.5 μM mitoxantrone. Each compound was measured in at least three independent experiments with three parallels in each case. DMSO, used as a solvent of compounds had no effect in this assay at the applied concentration."}, "HFF cell line": {"tested_on": "HFF cell line", "experiment": "Cytotoxicity, PrestoBlue 72 h, HFF", "assay_type": "cell-based, human", "conditions": "Non-toxic = not toxic up to 20 μM, read-out: Toxicity in HFF cell line, IC50", "protocol": "(§2) The toxic effects of the selected MtTopo-I inhibitory Vichem compounds were tested in three cell lines, HFF (human foreskin fibroblast), HEK293 (human embryonic kidney) and A431 (human epidermoid carcinoma) cell lines, obtained from ATCC. Establishment of ABC transporter-expressing A431cell lines was achieved by retroviral transduction of the cells as described previously.\n(§3) For cytotoxicity measurements the cells were seeded in a 96-well culture plate at 5,000 cells/well (A431, HEK293) or 6000 cells/well (HFF) and incubated overnight. […] After 72 hours of incubation viability was assessed by PrestoBlue® assay (Invitrogen). IC50 values were obtained by sigmoidal curve fitting in the GraphPad Prism software. All experiments were performed in triplicates and repeated at least in three independent experiments. DMSO, used as solvent of the compounds, had no effect on viability at the applied concentration."}, "HEK293 cell line": {"tested_on": "HEK293 cell line", "experiment": "Cytotoxicity, PrestoBlue 72 h, HEK293", "assay_type": "cell-based, human", "conditions": "Homo sapiens, HEK293, Non-toxic = not toxic up to 20 μM, read-out: Toxicity in HEK293 cell line, IC50", "protocol": "as §2, §3"}, "parental A431 cell line": {"tested_on": "parental A431 cell line", "experiment": "Cytotoxicity, PrestoBlue 72 h, parental A431", "assay_type": "cell-based, human", "conditions": "Non-toxic = not toxic up to 20 μM, read-out: Toxicity in parental A431 cell line, IC50", "protocol": "as §2, §3"}, "[2]": {"tested_on": "HFF, HEK293 and A431 cell lines", "assay_type": "cell-based, human", "protocol": "as §2, §3"}, "[3]": {"tested_on": "ABCB1-overexpressing A431 cell line", "conditions": "human, 72 h"}, "[4]": {"tested_on": "ABCG2-overexpressing A431 cell line", "conditions": "human, 72 h"}, "human ABCB1 [5]": {"biological_target": "T2, human ABCB1", "experiment": "Vanadate-sensitive ATPase activity assay in Sf9 membrane vesicles, ABCB1", "assay_type": "biochemical", "set-up": "made in house; host or cells: Sf9 insect cells (baculovirus), membrane vesicles; ABCB1 ATPase Vmax: unit not given here"}, "human ABCG2 [6]": {"biological_target": "T3, human ABCG2 (Homo sapiens, UniProt Q9UNQ0)", "T3 sequence (Q9UNQ0 1-655)": "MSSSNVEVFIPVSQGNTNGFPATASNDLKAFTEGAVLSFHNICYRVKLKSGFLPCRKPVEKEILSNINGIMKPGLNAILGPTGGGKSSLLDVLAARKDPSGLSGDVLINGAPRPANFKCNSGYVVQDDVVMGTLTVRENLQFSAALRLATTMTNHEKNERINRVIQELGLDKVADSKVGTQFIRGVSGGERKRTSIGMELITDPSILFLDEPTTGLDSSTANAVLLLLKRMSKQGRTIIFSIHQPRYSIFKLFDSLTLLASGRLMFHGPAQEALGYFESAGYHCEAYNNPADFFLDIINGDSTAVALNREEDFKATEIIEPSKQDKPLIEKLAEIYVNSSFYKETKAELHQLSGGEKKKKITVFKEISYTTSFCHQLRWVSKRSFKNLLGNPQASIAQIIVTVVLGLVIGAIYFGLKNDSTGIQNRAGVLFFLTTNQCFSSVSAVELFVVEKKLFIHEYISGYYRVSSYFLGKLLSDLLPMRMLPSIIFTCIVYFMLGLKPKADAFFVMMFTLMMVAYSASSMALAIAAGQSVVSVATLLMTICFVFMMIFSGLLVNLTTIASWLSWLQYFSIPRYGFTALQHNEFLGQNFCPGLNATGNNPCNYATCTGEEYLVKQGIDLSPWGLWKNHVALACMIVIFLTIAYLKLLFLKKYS", "experiment": "Vanadate-sensitive ATPase activity assay in Sf9 membrane vesicles, ABCG2", "assay_type": "biochemical", "set-up": "made in house; host or cells: Sf9 insect cells (baculovirus), membrane vesicles; ABCG2 ATPase, concentration at Vmax: unit not given here"}, "human ABCG2 [7]": {"biological_target": "T3, human ABCG2", "experiment": "Cellular transport assay, DCV or mitoxantrone uptake in ABCG2-overexpressing PLB cells", "assay_type": "cell-based", "set-up": "expressed in transfected cells; host or cells: PLB (human lymphoblastoid) cells, lentiviral transduction", "conditions": "S6 summary table", "protocol": "as §1"}, "[8]": {"conditions": "concentration at which Vmax was seen"}},
  "note": "pIC50: −log10 of the molar value. Where two headings read alike, the source gives them in different places.",
  "data": [
    {"smiles": "COc1ccc(/C=C/c2nc(NCCCN3CCOCC3)c3cc4ccccc4cc3n2)cc1", "note": "[VCC478498]", "values": [
      {"measurement": "Complete inhibition of MtTopoI", "setting": "MtTopo-I", "result": "10 to 25", "unit": "µM"},
      {"measurement": "MIC90", "setting": "H37Rv Mtb strain; Mycobacterium tuberculosis, H37RV, minimum concentration providing 90% growth inhibition, 20 to 0.04 μM, N.I. = no inhibition observed up to 20 μM, read-out: MIC90 of compounds in H37Rv growth test", "result": 0.6, "unit": "µM"},
      {"measurement": "Toxicity in H37Rv assay (summary)", "setting": "H37Rv Mtb strain; S6 summary table", "result": "+"},
      {"measurement": "Growth inhibition of H37Rv mycobacteria (in words)", "setting": "H37Rv Mtb strain; tested up to 20 μM", "result": "effectively inhibited the growth"},
      {"measurement": "ABC transporter transport assay, ABCB1 (summary)", "setting": "human ABCB1 [1]", "result": "+"},
      {"measurement": "pIC50", "setting": "HFF cell line; Homo sapiens, HFF", "result": "> 5.30"},
      {"measurement": "pIC50", "setting": "HFF cell line", "result": "5.30 to 5.60"},
      {"measurement": "pIC50", "setting": "HEK293 cell line", "result": "4.70 to 5.00"},
      {"measurement": "pIC50", "setting": "parental A431 cell line; Homo sapiens, A-431, 72 h", "result": "> 5.30"},
      {"measurement": "pIC50", "setting": "parental A431 cell line", "result": 5.52},
      {"measurement": "Toxicity in human cell lines (in words)", "setting": "[2]", "result": "toxic"},
      {"measurement": "Toxicity in mammalian cell lines (summary)", "setting": "[2]", "result": "+"},
      {"measurement": "ABC transporter modified cytotoxicity, ABCB1 (summary)", "setting": "[3]", "result": 0},
      {"measurement": "ABC transporter modified cytotoxicity, ABCG2 (summary)", "setting": "[4]", "result": 0},
      {"measurement": "ABC transporter ATPase assay, ABCB1 (summary)", "setting": "human ABCB1 [5]; S6 summary table", "result": 0},
      {"measurement": "ABCB1 ATPase, concentration at Vmax", "setting": "human ABCB1 [5]; [8]", "result": 6.25, "unit": "µM"},
      {"measurement": "ABCB1 ATPase Vmax", "setting": "human ABCB1 [5]; vanadate-sensitive ATPase, from dose-response curves, basal 5.7±0.7", "result": "7.2±1.8"},
      {"measurement": "ABC transporter ATPase assay, ABCG2 (summary)", "setting": "human ABCG2 [6]; S6 summary table", "result": "-"},
      {"measurement": "Effect on ABCG2-ATPase activity (in words)", "setting": "human ABCG2 [6]; Sf9 membrane vesicles, 0.1–10 μM for stimulation, 50 μM for inhibition", "result": "only an inhibition"},
      {"measurement": "ABCG2 ATPase, concentration at Vmax", "setting": "human ABCG2 [6]; [8]", "result": 2},
      {"measurement": "ABCG2 ATPase Vmax", "setting": "human ABCG2 [6]; vanadate-sensitive ATPase, from dose-response curves, basal 22±1.4", "result": "21.5±2.4"},
      {"measurement": "ABC transporter transport assay, ABCG2 (summary)", "setting": "human ABCG2 [7]", "result": "+"}
    ]}
  ]
}
